# Experimental data: patent publication US4632922A, “Oxomorpholinyl dimer and rescue of anthracycline and mitomycin C damage” (The United States of America as represented by the …, priority 1985, dated 1986)
# Test: Kinetics of reaction of DHM3 with daunorubicin in methanol solvent
# Method: Oxomorpholinyl dimer DHM3 (5.8 mg) was dissolved in 100 ml of oxygen-free dichloromethane by stirring under nitrogen for 1 h. A portion of the solution (1.0 ml, 1.8×10^-4 mmol) of DHM3 was transferred via syringe to the spectrophotometric compartment of a two-compartment Pyrex cell with attachment for connection to a vacuum line with an Ultra Torr Union. The solvent was then evaporated with a stream of nitrogen. Daunorubicin hydrochloride (8.83 mg) was dissolved in 100 ml of a methanolic solution of 18.9 mg of tris(hydroxymethyl)aminomethane (Tris) and 24.7 mg of Tris hydrochloride. A portion of this solution (2.5 ml, 3.9×10^-4 mmol of 6) was introduced via syringe into the second compartment of the cell. The methanol solution was freeze (liquid nitrogen)-pump (2×10^-6 Torr)-thaw degassed through four cycles, sealed, and placed in a thermostatted cell holder at 25.1±0.1° C. for about 15 min. prior to mixing the solution with DHM3. After mixing, the average absorbance at 618 and 620 nm was recorded versus time. A non-linear least-squares treatment of the data as mentioned below gave a first order rate constant for bond homolysis of DHM3 equal to 1.8×10^-3 sec^-1.
# The oxomorpholinyl dimer DHM3 causes reductive elimination of the sugar moiety, daunosamine, of daunorubicin (6) in much the same way as the structurally related bi(3,5,5-trimethyl-2-oxomorpholin-3-yl) (9). (See Schematic FIG. 2). […] The kinetics were established by regressional, non-linear least squares fitting of the absorbance versus time data to equation 1,
# -k1))(e^-k.sbsp.1^t -e^-k.sbsp.2^t)
# where At is the absorbance of 7 at time t, ε7 is the extinction coefficient of 7 at 618-620 nm, [DHM3]o is the concentration of DHM-3 at time zero, k1 is the rate constant for bond homolysis of DHM3 and k2 is the rate constant for tautomerization of 7 to 8. The value obtained for k1, 1.8×10^-3 sec^-1, was approximately half that obtained for bond homolysis of 9. […]
smiles,measurement,setting,value
"CC1(CO)COC(=O)C(C)(C2(C)NC(C)(CO)COC2=O)N1 (stereo not drawn) [DHM3, bi(3,5-dimethyl-5-hydroxymethyl-2-oxomorpholin-3-yl)]",reaction product with daunorubicin,"1:2 molar ratio, oxygen degassed methanol, 25° C.",gives 7-deoxydaunorubicinone 8 as the only reaction product
same,k1 relative to that obtained for bond homolysis of 9,"methanol, 25° C.",approximately half
same,first order rate constant for bond homolysis of DHM3 (k1),"methanol, 25.1±0.1° C., with daunorubicin",0.0018 s⁻¹
